This note sets out measurements from US9840498B2, “Substituted quinazolin-4-one derivatives” (NOVARTIS AG, priority 2013, dated 2017).

Assay [1] deals with human phosphoinositide-3 kinase (PI3K) alpha (Homo sapiens (Human), UniProt P42336). Put plainly: PI3K-mediated Akt 1/2 (S473) phosphorylation in Rat-1 cells overexpressing PI3K alpha. The format is cell-based, rat cells expressing human PI3K alpha. The following applies: cellular assay, p-AKT(Ser473), read-out: Cell PI3K alpha IC50. As for the experimental part:
(§1) 2.1 Phosphoinositide-3 kinase (PI3K)-Mediated Akt 1/2 (S473) Phosphorylation in Rat-1 Cells
(§2) Rat-1 cells stably overexpressing a myristoylated form of the catalytic subunit of human phosphoinositide-3 kinase (PI3K) alpha, beta or delta were plated in 384-well plates at a density of 7500 (PI3K alpha), 6200 (PI3K beta), or 4000 (PI3K delta) cells in 30 ul complete growth medium (Dulbecco's modified Eagle's medium (DMEM high glucose) supplemented with 10% (v/v) fetal bovine serum, 1% (v/v) MEM non essential amino acids, 10 mM HEPES, 2 mM L-glutamine, 10 μg/mL puromycin and 1% (v/v) Penicillin/Streptomycin) and were incubated at […]/5% CO2/95% humidity for 24 h. Compounds were diluted in 384-well compound plates (compound master plates), to obtain 8-point serial dilutions for 40 test compounds in 90% DMSO, as well as 4 reference compounds plus 16 high controls and 16 low (inhibited) controls. Predilution plates were prepared by dispensing pipetting 250 nl of compound solutions into 384-well polypropylen plates (daugther plates), using a Hummingwell nanoliter dispenser. Compounds were prediluted by the addition of 49.75 ul complete growth medium. 10 ul of prediluted compound solution were transferred to the cell plate using a 384-well pipettor, resulting in a final DMSO concentration of 0.11%. Cells were incubated for 1 h at […]/5% CO2/95% humidity. The supernatant was removed, the cells were lysed in 20 ul of lysis buffer for AlphaScreen® SureFire® detection.
(§3) For detection of p-AKT(Ser473), the SureFire® p-Akt 1/2 (Ser473) Assay Kit (PerkinElmer, U.S.A.) was used. 5 ul of cell lysate was transferred to 384-well low volume Proxiplates for detection using a 384-well pipettor. Addition of AlphaScreen® SureFire® reagents was done according to the manufacturer's protocol. First, 5 ul of reaction buffer plus activation buffer mix containing AlphaScreen® acceptor beads was added, the plate was sealed, and incubated on a plate shaker for 2 hours at room temperature. Second, 2 ul of dilution buffer containing AlphaScreen® donor beads was added, and the plate was incubated on plate shaker as above for a further 2 hours. The plate was read on an AlphaScreen® compatible plate reader, using standard AlphaScreen® settings. Alternatively, p-AKT(Ser473) was detected with the CisBio HTRF Assay Kit: As positive control, 0.9 mM of 1-(3-(trifluoromethyl)-4-(piperazin-1-yl)phenyl)-8-(6-methoxypyridin-3-yl)-3-methyl-1H-imidazo[4,5-c]quinolin-2(3H)-one maleic acid salt in 90% (v/v) DMSO was added to the compound master plate. For compound testing, the cells were seeded at a density of 4000 (Rat-1_PI3Kdelta), 8000 (Rat-1_PI3Kalpha), or 6500 (Rat-1_PI3Kbeta) cells in 30 ul complete growth medium into 384-well plates, with a plastic surface promoting the adhesion of cells and their growth (assay plates) and were grown at 37° C./5% CO2/90% humidity for 24 h. Some 10 ul of the compound predilutions from the daughter plate were then transferred to the cells. After treatment with compound for 1 h, medium was removed and cells were lysed by the addition of 20 ul lysis buffer supplemented with blocking buffer. Detection of p-AKT(Ser473) was performed with the HTRF pAKT (Ser473) assay kit according to the manufacturer's instructions using 16 ul of cell lysate in a total detection volume of 20 ul.

The target in assay [2] is human phosphoinositide-3 kinase (PI3K) delta (Homo sapiens (Human), UniProt O00329). Put plainly: PI3K-mediated Akt 1/2 (S473) phosphorylation in Rat-1 cells overexpressing PI3K delta. It is filed as cell-based. The settings on record: cellular assay, p-AKT(Ser473), read-out: Cell PI3K delta IC50. As for the experimental part:
as §1, §2, §3

The target in the next assay is PI 3-Kinase Gamma (Homo sapiens (Human), UniProt P48736). The assay can be described thus: Cellular U937 AKT assay for PI 3-kinase gamma. It is filed as cell-based. The settings on record: U937 cells, MIP1α-stimulated AKT phosphorylation, read-out: Cell PI3K gamma IC50. The protocol:
The U937 monocyte cell line is maintained in a basal medium of RPMI 1640 supplemented with 10% heat inactivated FCS, 100 U/ml Penicillin, 100 ug/ml streptomycin and 2 mM L-glutamine (Invitrogen). U937 suspension culture is maintained by seeding cells at a density of 0.125×10^6 cells per ml in fresh medium every three or four days. Cells are incubated at 37° C., 5% CO2. […] Before beginning the cell manipulations described below, the MSD (Meso Scale Discovery) assay plate is blocked by addition of 150 ul/well blocking buffer supplied and incubated with shaking for a minimum of one hour at room temperature. All steps of the assay must be performed quickly, with accurately timed incubation periods and observing temperature controls where indicated. […] Falcon tube, counted and centrifuged for eight minutes at 300 g at room temperature. Supernatant is aspirated, the cell pellet resuspended and washed once in HBSS (Hank's Balanced Salt Solution) by centrifugation for eight minutes at 300 g at room temperature. The cell pellet is resuspended in HBSS to a concentration of 4×10^6 per ml, and 100 μL of cell suspension added to each well of a flat-bottomed 96-well tissue culture plate. Assay plates are incubated for 1.5 hours at 37° C., 5% CO2 to allow background AKT phosphorylation to reduce before the compound stimulation step. […] Compound concentrations at this stage are 4-times the final concentration required in the assay plate. Cells are stimulated with compound or HBSS 0.8% DMSO by direct transfer of 50 ul/well from the compound dilution plate. The assay plate containing compound-treated cells is then incubated for 30 minutes at 37° C. A standard plate layout is used for all experiments. Compound-treated cells, in addition to positive control wells (“max MIP1α”), are stimulated with 50 μL per well of 40 ng/ml MIP1α (R&D Systems catalogue number 270-LD, lyophilized stock reconstituted to 50 μg/ml with PBS 0.1% BSA). Negative control wells (“min HBSS”), are stimulated with 50 μl/well of HBSS in the absence of MIP1α. […] Cells are incubated with MIP1α for 3 minutes, at 37° C., 5% CO2. After the three minute stimulation period, the assay plate is kept ice cold at all times. Assay plates are centrifuged for 2 minutes at 300 g, 4° C. and supernatant is removed by gently inverting, and then blotting the plate on tissue. Cells are then washed by gentle addition of 150 μL/well of ice cold HBSS and centrifugation at 300 g, for 5 minutes at 4° C. Supernatant is aspirated and the plate blotted as described above. The plate is placed on ice and cells are immediately treated with 35 μL per well of ice cold lysis buffer, prepared according to the kit instructions (per assay plate, to 5 ml of Tris lysis buffer add 100 μl of 50× protease inhibitor solution and 50 μl of each 100× phosphatase inhibitor solutions I and II). Plates are incubated on ice for 20 minutes before centrifugation at 841 g for 5 minutes, 4° C. Block buffer is aspirated from the MSD plate, and the plate washed four times with 300 μl/well Tris wash buffer. 25 μL of cell lysate is then transferred from the assay plate to the washed MSD plate which is sealed and incubated at room temperature for one hour with shaking. The plate is washed four times with 300 μL per well of Tris wash buffer before addition of 25 μL per well of sulfo-tag anti-total AKT/pAKT detection antibody (60 μl of 50× antibody stock is diluted in 1 ml block buffer mixed with 2 ml wash buffer) and incubated at room temperature for one hour with shaking. The plate is washed four times with 300 μl per well of Tris wash buffer and 150 μl per well of Read buffer is added, taking care to avoid the introduction of bubbles. The plate is immediately read using an MSD SECTOR Imager 6000. Results are exported in Excel and the percentage of phosphorylated AKT is calculated using the equation: % Phosphoprotein=((2*Phospho signal)/(Phospho signal+Total signal))*100. […]

PI 3-Kinase Gamma, sequence (P48736 whole entry): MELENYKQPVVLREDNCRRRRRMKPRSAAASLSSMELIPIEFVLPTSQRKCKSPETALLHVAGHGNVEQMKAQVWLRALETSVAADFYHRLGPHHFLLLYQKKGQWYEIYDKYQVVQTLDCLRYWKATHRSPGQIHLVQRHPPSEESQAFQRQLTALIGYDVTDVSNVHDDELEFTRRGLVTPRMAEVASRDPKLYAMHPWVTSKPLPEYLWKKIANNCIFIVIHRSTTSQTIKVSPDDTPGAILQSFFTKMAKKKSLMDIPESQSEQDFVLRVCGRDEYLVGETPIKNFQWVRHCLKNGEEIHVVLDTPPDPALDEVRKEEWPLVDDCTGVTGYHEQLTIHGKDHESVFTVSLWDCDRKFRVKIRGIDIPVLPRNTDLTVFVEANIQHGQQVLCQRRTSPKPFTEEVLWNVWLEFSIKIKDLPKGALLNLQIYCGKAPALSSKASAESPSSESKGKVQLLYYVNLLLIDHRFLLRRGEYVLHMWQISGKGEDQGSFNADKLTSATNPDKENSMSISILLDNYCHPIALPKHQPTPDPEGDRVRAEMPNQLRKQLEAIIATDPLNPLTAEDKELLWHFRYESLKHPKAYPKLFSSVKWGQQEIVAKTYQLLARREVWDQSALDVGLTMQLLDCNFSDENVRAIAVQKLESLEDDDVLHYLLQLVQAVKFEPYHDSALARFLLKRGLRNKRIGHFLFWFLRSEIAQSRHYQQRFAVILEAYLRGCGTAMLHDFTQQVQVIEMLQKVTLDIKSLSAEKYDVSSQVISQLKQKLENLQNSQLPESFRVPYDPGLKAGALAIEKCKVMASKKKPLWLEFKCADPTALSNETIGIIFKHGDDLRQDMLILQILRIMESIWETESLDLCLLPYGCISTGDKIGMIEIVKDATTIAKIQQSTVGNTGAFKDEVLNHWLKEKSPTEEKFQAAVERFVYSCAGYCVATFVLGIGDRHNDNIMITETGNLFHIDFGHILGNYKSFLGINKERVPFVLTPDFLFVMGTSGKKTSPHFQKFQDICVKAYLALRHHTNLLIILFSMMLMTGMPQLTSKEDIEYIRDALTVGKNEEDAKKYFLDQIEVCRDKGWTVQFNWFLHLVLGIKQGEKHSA
human phosphoinositide-3 kinase (PI3K) alpha, sequence (P42336 whole entry): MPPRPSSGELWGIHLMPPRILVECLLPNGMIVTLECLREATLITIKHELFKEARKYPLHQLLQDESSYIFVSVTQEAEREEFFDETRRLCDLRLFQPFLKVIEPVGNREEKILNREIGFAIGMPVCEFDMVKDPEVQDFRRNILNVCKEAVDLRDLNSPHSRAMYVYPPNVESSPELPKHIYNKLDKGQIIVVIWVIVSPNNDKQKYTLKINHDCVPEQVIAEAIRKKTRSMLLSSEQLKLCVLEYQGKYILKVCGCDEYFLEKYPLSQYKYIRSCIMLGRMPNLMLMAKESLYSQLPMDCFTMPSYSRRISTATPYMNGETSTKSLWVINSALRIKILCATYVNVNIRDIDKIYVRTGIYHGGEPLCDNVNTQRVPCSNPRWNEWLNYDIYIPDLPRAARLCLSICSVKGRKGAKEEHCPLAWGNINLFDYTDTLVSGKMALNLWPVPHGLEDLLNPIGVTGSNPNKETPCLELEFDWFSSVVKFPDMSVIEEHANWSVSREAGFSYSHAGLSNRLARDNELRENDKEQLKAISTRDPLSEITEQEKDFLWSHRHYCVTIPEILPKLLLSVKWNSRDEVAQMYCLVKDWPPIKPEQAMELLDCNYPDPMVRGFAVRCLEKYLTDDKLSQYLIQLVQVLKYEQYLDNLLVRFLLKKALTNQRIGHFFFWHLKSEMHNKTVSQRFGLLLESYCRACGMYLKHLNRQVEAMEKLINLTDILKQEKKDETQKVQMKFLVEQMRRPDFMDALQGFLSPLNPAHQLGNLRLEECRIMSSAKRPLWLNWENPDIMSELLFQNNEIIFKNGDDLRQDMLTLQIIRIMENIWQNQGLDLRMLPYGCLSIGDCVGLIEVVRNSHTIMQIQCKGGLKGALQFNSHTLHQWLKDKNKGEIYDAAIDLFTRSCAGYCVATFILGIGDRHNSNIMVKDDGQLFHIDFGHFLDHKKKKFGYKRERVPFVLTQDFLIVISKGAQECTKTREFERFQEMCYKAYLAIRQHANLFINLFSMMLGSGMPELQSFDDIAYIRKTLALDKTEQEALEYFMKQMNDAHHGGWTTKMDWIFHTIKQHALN
human phosphoinositide-3 kinase (PI3K) alpha, sequence (Q63787 whole entry partner): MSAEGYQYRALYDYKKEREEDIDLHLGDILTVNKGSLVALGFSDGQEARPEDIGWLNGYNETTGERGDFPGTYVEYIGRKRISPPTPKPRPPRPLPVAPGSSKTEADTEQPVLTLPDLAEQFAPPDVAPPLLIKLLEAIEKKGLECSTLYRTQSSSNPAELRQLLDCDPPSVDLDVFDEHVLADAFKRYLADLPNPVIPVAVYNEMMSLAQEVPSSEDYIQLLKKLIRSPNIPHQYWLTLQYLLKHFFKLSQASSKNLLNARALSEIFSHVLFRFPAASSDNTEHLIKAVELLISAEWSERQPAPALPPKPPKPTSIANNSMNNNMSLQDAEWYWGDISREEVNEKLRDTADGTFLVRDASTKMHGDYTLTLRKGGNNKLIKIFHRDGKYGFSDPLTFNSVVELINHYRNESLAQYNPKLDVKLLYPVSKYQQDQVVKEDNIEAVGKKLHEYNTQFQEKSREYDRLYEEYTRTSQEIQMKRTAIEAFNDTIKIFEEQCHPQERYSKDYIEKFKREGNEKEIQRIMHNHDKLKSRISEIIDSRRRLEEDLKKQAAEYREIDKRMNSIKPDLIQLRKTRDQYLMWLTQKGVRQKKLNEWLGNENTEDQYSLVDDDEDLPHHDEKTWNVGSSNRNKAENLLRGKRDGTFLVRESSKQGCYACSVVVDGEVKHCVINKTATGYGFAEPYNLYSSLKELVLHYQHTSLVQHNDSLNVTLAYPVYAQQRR
human phosphoinositide-3 kinase (PI3K) delta, sequence (O00329 whole entry): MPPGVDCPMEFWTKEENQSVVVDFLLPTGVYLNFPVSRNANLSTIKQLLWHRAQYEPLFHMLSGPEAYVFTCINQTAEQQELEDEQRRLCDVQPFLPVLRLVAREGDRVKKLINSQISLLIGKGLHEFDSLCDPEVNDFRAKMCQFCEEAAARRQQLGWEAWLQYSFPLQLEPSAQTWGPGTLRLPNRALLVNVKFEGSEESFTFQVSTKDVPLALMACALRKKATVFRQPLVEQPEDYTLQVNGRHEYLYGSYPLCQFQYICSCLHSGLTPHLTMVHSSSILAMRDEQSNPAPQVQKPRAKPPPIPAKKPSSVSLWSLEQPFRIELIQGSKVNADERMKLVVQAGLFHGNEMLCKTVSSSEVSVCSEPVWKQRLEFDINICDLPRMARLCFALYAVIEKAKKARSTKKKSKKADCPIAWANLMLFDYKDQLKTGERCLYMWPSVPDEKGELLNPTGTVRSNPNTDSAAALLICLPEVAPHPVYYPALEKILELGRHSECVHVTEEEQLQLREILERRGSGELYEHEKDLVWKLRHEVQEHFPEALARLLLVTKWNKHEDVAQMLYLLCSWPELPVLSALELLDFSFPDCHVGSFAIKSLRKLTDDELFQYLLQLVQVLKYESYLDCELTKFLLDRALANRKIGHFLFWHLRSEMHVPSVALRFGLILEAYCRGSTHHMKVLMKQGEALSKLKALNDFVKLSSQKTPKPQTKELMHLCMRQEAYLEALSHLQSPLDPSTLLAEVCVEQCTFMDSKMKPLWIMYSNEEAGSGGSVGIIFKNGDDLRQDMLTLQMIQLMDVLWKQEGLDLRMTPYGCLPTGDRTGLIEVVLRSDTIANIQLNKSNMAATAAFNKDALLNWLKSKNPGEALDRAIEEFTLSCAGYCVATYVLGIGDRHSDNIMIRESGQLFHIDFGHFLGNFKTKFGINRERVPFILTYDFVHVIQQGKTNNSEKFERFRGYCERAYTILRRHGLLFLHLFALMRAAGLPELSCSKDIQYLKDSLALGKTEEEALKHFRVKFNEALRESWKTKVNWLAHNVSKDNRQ
human phosphoinositide-3 kinase (PI3K) delta, sequence (Q63787 whole entry partner): as the sequence (Q63787 whole entry partner) above

Consider `Cc1ncc(-c2cccc3nc([C@@H]4C[C@H](O)CN4c4nc(N)nc(C)c4C#N)n(-c4ccccc4)c(=O)c23)cn1` [Example 23, 2-Amino-4-((2S,4S)-4-hydroxy-2-(5-(2-methylpyrimidin-5-yl)-4-oxo-3-phenyl-3,4-dihydroquinazolin-2-yl)pyrrolidin-1-yl)-6-methylpyrimidine-5-carbonitrile], for which the IC50 in assay [1] was more than 10000 nM; in assay [2] it was 13 nM; at PI 3-Kinase Gamma, 11 nM.
